{"source": "paper PMC3475717", "about": "“A Spiroligomer α-Helix Mimic That Binds HDM2, Penetrates Human Cells and Stabilizes HDM2 in Cell Culture” (PLoS ONE, 2012)", "key": {"[1]": {"test_system": "HDM2, p53Y220C and p21 in Huh7 cells", "assay": "Western blot analysis of HDM2, p53 and p21", "assay_type": "cell-based, human", "method": "Huh7 cells were incubated with spiroligomer 1 and Nutlin-3 in media at 2, 5, 10 and 20 µM for 17 hours at 37°C. […] Huh7 cells were then incubated with 1 at 15 µM and cells were harvested at 2, 4, 6, 8, 12 and 24 hours. […]\nCell Culture and Treatment. HepG2 (expressing wild-type p53) and Huh7 (expressing mutant p53) cell lines were purchased from the American Type Culture Collection (ATCC) and cultured as monolayers in Dulbecco’s modified Eagle’s medium (DMEM) (Invitrogen) supplemented with 100 mM nonessential amino acid solution, 100 mM sodium pyruvate, 100 U/mL penicillin, 100 μg/mL streptomycin, and 10% heat inactivated fetal bovine serum (FBS) (all from Hyclone).\nCells were maintained at 37° C and 5% CO2 and were treated with media that contained 0.5%\nFBS. Nutlin-3 (Sigma) was dissolved in 0.01% DMSO (Sigma).\nBoth nutlin-3 and spiroligomers were added into the medium for final concentrations of 2 µM, 5 µM, 10 µM and 20 µM for 24 hours. For the western blot experiments detailed below, the time length for incubation with bis-peptide was 17 hours. […]\nWestern Blotting. For protein extraction, cells were lysed in cell lysis buffer (Cell Signaling) with a protease inhibitor cocktail for 20 minutes on ice. Protein extracts (50 μg) were separated by SDS-PAGE electrophoresis, transferred to nitrocellulose membranes (Schleicher & Schuell), and incubated overnight with primary antibodies to p53, HDM2, p21, and β-actin (all from Santa Cruz Biotechnology). The blots were developed using ECL plus detection system (Amersham Biosciences) and exposed to Kodak imaging films (Kodak BioMax). Images were quantified using ImageJ software (NIH).\nFigure S.5. Detection of bis-peptide 1 and Nutlin-3 in HepG2 (left) and Huh7 (right) cells. The concentration of each compound is given in μM and the three proteins (HDM2, p53 and p21) bands are […]"}, "[2]": {"test_system": "mRNA for HDM2 in Huh7 cells", "assay": "quantitative real-time PCR and end-point PCR of HDM2", "assay_type": "cell-based, human", "details": "β-actin as loading control", "method": "Huh7 cells were incubated with spiroligomer 1 and Nutlin-3 in media at 2, 5, 10 and 20 µM for 17 hours at 37°C. […] Huh7 cells were then incubated with 1 at 15 µM and cells were harvested at 2, 4, 6, 8, 12 and 24 hours. […] Our hypothesis is that compound 1 stabilizes HDM2 to proteolysis. Studies are underway to determine the mechanism of HDM2 stabilization by compound 1.\nRNA Extraction, Reverse Transcription and PCR Analysis. Total RNA was extracted using High Pure RNA Isolation Kit (Roche Applied Science) according to enclosed instructions. cDNA was prepared using RETROscript Reverse Transcription Kit (Ambion). HDM2 primers (Ensembl […]\n(forward) and 5'-[…]-3' (reverse). These primers recognize cDNAs of all HDM2 isoforms with p53 binding sequence7 and generate 102 bp amplicon. β-actin primers for 243 bp PCR transcript (Ensemble gene: Actb, ENSRNOG00000034254) were 5’- […]\n[…]-3’ (forward) and 5’-[…]-3’ (reverse).\nPrimers were designed using Primer3Plus Web Interface. cDNA was amplified using FastStart SYBR Green Master Kit (Roche Applied Science). Real-time quantitative PCR was performed using Stratagene Mx 3005P QPCR system. PCR samples were amplified in 40 cycles; each cycle consisted of 60 sec of denaturation at 95 °C, 60 sec of annealing at 60 °C, and 60 sec of elongation at 72 °C. […]\nFigure S.7. Real-time quantitative PCR (A.) and end-point PCR (B.) analysis of HDM2 in Huh7 cells […]"}, "[3]": {"target": "T1, HDMX (Homo sapiens, UniProt O15151)", "T1 sequence (O15151 1-490)": "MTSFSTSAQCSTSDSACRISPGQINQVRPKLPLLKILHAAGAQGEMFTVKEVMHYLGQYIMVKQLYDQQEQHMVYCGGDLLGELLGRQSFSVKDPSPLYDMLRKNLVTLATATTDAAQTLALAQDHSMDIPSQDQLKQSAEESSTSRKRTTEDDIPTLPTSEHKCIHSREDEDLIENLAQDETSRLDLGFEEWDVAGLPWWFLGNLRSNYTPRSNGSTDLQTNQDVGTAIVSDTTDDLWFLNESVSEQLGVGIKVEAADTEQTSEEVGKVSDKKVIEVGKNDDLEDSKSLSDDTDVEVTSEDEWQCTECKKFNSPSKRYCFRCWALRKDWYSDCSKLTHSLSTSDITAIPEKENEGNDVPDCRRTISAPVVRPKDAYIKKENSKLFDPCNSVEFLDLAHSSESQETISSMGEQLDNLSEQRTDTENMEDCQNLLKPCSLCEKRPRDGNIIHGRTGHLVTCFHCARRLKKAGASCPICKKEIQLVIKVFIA", "assay": "binding experiments with HDMX"}, "[4]": {"details": "Huh7, 2, 5, 10 and 20 µM, 17 hours, 37°C"}}, "note": "“Also recorded” adds a separate entry of the source.", "data": [{"smiles": "CC(C)CN1C(=O)[C@@H]2C[C@@]3(CN2C(=O)[C@@]12C[C@H]1C(=O)N(Cc4ccc(Cl)c(Cl)c4)[C@]4(C[C@@H]5C(=O)N[C@@H](CCc6ccccc6)C(=O)N5C4)C(=O)N1C2)NC(=O)[C@@H](CCCCNC(=S)Nc1ccc2c(c1)C(=O)OC21c2ccc(O)cc2Oc2cc(O)ccc21)NC3=O", "note": "[Compound 1]", "values": [{"measurement": "p53Y220C levels with time", "setting": "[1]; Huh7, 15 µM, harvested at 2, 4, 6, 8, 12 and 24 hours", "result": "no change in p53Y220C levels with time; also recorded: no effect on p53Y220C levels"}, {"measurement": "p21 levels", "setting": "[1]; [4]", "result": "did not change"}, {"measurement": "p53Y220C levels", "setting": "[1]; [4]", "result": "did not change"}, {"measurement": "HDM2 levels relative to control cells", "setting": "[1]; Huh7, 2, 5, 10 and 20 µM, 17 hours, 37°C, dose-dependent", "result": "more than 30 fold"}, {"measurement": "level of mRNA for HDM2", "setting": "[2]", "result": "no effect; also recorded: no difference in HDM2 expression levels"}, {"measurement": "selectivity HDM2 versus HDMX", "setting": "[3]; Kd HDM2 0.4 µM versus Kd HDMX 19 µM", "result": "selective for HDM2"}, {"measurement": "Kd", "setting": "[3]; data not shown", "result": 19, "unit": "µM"}]}]}
